{"source": "patent US10653138B2", "about": "“Composition for attracting bed bugs” (London School of Hygiene & Tropical Medicine, priority 2015, dated 2020)", "key": {"bed bugs [1]": {"test_system": "bed bugs", "experiment": "Behavioural bioassay, dose responses of individual chemicals (Example 8)", "format": "in vivo, Cimex lectularius", "conditions": "for dose response: 0.008× to 8000×; for doses on which further synthetic blends should focus: × relative to 8% natural standard (8×=1× standard)", "method": "Methods: The behavioural bioassay was as described by Weeks et al. 2011 and recorded using EthoVision and the methodology described by Weeks et al. 2013. For each chemical, (E)-2-octenal, (RS)-1-octen-3-ol and nonanal, seven doses were tested from 0.008× to 8000×, along with three controls. Each replicate was completed as a block of 10 treatments including: We are referring here to either 0.001×, 0.01×, 0.1×, 1×, 10×, 100× or 1000× the dose of (E)-2-octenal found naturally in the aggregation pheromone. For instance, an “8% solution” refers to an 8% dose of volatile extract (with the various different ratios of individual component). In each block the order of the treatments and the position of the odour pot were randomized. 10 blocks were completed for each chemical (n=10)."}, "bed bug antennae": {"test_system": "bed bug antennae", "experiment": "Coupled gas chromatography-electroantennography (GC-EAG) of volatile extract from bed bug-exposed paper", "set-up": "species or system Cimex lectularius", "conditions": "for Electrophysiology Auto method: bullet = marked under the Auto method; for Responses Total: males plus females, 20 insects tested; for Responses Females: number of females giving an EAG response to the peak; for Responses Females / Responses Males: volatile extract 1 μL; for Responses Males: number of males giving an EAG response to the peak; for electroantennogram (EAG) response: result in words; for Visual inspection (no of responses) >5 / Visual inspection (no of responses) >10 / Visual inspection (no of responses) >15: threshold of individuals responding; for Visual inspection (no of responses) Response: total EAG responses, Table 8", "description": "Experimental insects, unless otherwise stated, were mated males and females of C. lectularius that had been fed 7 to 14 days previously on heparinised sheep blood. The electrodes used to make recordings were Ag/AgCl wires (diameter 0.37 mm) inserted into glass pipettes, made from borosilicate glass capillaries (outer diameter 2.0 mm; inner diameter 1.16 mm). The glass pipettes were filled with Ringers solution (7.55 g NaCl, 0.64 g KCl, 0.22 g CaCl2, 1.73 g MgCl2 g, 0.86 g NaHCO3 and 0.61 g Na3PO4 L^−1 water). The bed bug was then chilled on ice for one minute before dissection. Preparations were held in a continuous, humidified, charcoal filtered air flow ([…]) coming from a glass tube, which was positioned 5 mm from the antennal preparation. Once the antennal preparation and EAG equipment were in position the microscope light was switched off.\nThe GC used was a HP-680N, containing a HP-1 column (30 m×0.32 mm; film thickness, 0.52 μm) with a COC injector, hydrogen carrier gas and a FID. The oven temperature was maintained at 40° C. for two min and then programmed at 5° C. min^−1 to 100° C. and then at 10° C. […] to 250° C. The end of the column was inserted into the centre of the main air flow so that the eluent went over the antennal preparation. […] Amplification of the signals was set at ×10,000. Signals were analysed using the computer-based software package, EAD 2000 (Syntech®, The Netherlands). The volatile extract (1 μL) from an air entrainment of bed bug-exposed papers (see Example 1) was injected onto the column. A solution of n-alkanes (C7-C25, 1 μL of 100 ng μL^−1) in hexane was also analysed to calculate the retention indices (RI) of any EAG-active peaks for comparison with GC and coupled GC-MS traces (Equation 1).\nElectroantennographic (EAG) responses from the coupled gas chromatography-electroantennographic (GC-EAG) analysis of the volatile extract collected using air entrainment were determined by visual appearance. Coupled GC-EAG traces were examined visually on a light box to identify EAG responses and match them to peaks on the GC traces. A combination of characteristics including the amplitude and shape of the deflection from the baseline were used to identify EAG responses. For example, an EAG response is usually of greater amplitude than the background noise and it has a characteristic negative deflection followed by a quick positive deflection resulting in a short sharp response often of similar shape and position as the corresponding peak on the GC trace. Responses were matched between males and females separately onto master traces for each sex. The EAG-active peaks were labelled from 1 to 21. Male and female master traces were then overlaid to identify where consistent responses occurred in both sexes. Five or more individuals responding at the same retention time on the GC trace was considered to be a consistent EAG response and the corresponding peak on the GC trace was considered to be EAG-active. Three thresholds were used: greater than 5, greater than 10 or greater than 15 individuals responding to the same GC peak or at the same retention time. The traces were then subjected to manual or automated statistical analysis."}, "bed bugs [2]": {"test_system": "bed bugs", "experiment": "Behavioural bioassay, refined synthetic blends (Example 9)", "format": "in vivo, Cimex lectularius", "description": "The behavioural bioassay was as described by Weeks et al. 2011 and recorded using EthoVision and the methodology described by Weeks et al. 2013. Each replicate was completed as a block of 10 treatments including: • 1. Bed bug-exposed paper (positive control) • 2. Ether (negative control) • 3. Nonanal 80× • 4. E-2-octenal 800× • 5. Nonanal 80× and E-2-octenal 80× (80-80) • 6. Nonanal 80× and E-2-octenal 800× (80-800) • 7. Nonanal 80× and E-2-octenal 8000× (80-8000) • 8. Nonanal 8× and E-2-octenal 800× (8-800) • 9. Nonanal 8× and E-2-octenal 8000× (8-8000) • 10. Nonanal 80×, E-2-octenal 80× and 1-octen-3-ol 80× (80-80-80)\nWe are referring here to either 1×, 10×, 100× or 1000× the dose of Nonanal or (E)-2-octenal found naturally in the aggregation pheromone. For instance, an “8% solution” refers to an 8% dose of volatile extract (with the various different ratios of individual component).\nTherefore, 8× means that it is 1 of standard volatiles, 8×=1× standard, 80×=10× standard and 800×=100× standard. 8000×=1000× standard.\nIn each block the order of the treatments and the position of the odour pot were randomized. 18 blocks were completed."}, "bed bugs [3]": {"test_system": "bed bugs", "conditions": "volatile components of aggregation pheromone; cited from earlier work"}}}
{"smiles": "CCCCC/C=C/C=O", "note": "(single isomer, unassigned) [(E)-2-octenal]", "values": [{"measurement": "dose response", "setting": "bed bugs [1]", "value": "clear dose response was observed"}, {"measurement": "doses on which further synthetic blends should focus", "setting": "bed bugs [1]", "value": "800-8000 ×"}, {"measurement": "Electrophysiology Auto method", "setting": "bed bug antennae", "value": "•"}, {"measurement": "Responses Total", "setting": "bed bug antennae", "value": 16}, {"measurement": "Responses Females", "setting": "bed bug antennae", "value": 8}, {"measurement": "Responses Males", "setting": "bed bug antennae", "value": 8}, {"measurement": "electroantennogram (EAG) response", "setting": "bed bug antennae", "value": "EAG-active"}, {"measurement": "Visual inspection (no of responses) >5", "setting": "bed bug antennae", "value": "• (>5)"}, {"measurement": "Visual inspection (no of responses) >10", "setting": "bed bug antennae", "value": "• (>10)"}, {"measurement": "Visual inspection (no of responses) >15", "setting": "bed bug antennae", "value": "• (>15)"}, {"measurement": "Visual inspection (no of responses) Response", "setting": "bed bug antennae", "value": 16}, {"measurement": "time spent over the odour pot compared with blends", "setting": "bed bugs [2]; (E)-2-octenal 800 treatment", "value": "significantly lower in time spent over the odour pot than 80-800 and 8-800"}, {"measurement": "attraction of bed bugs to safe shelters", "setting": "bed bugs [3]", "value": "attract bed bugs to safe shelters"}]}
{"smiles": "CCCCCCCCC=O", "note": "[Nonanal, nonanal]", "values": [{"measurement": "dose response", "setting": "bed bugs [1]", "value": "clear dose response was observed"}, {"measurement": "doses on which further synthetic blends should focus", "setting": "bed bugs [1]", "value": "8-80 ×"}, {"measurement": "Electrophysiology Auto method", "setting": "bed bug antennae", "value": "•"}, {"measurement": "Responses Total", "setting": "bed bug antennae", "value": 17}, {"measurement": "Responses Females", "setting": "bed bug antennae", "value": 9}, {"measurement": "Responses Males", "setting": "bed bug antennae", "value": 8}, {"measurement": "electroantennogram (EAG) response", "setting": "bed bug antennae", "value": "EAG-active"}, {"measurement": "Visual inspection (no of responses) >5", "setting": "bed bug antennae", "value": "• (>5)"}, {"measurement": "Visual inspection (no of responses) >10", "setting": "bed bug antennae", "value": "• (>10)"}, {"measurement": "Visual inspection (no of responses) >15", "setting": "bed bug antennae", "value": "• (>15)"}, {"measurement": "Visual inspection (no of responses) Response", "setting": "bed bug antennae", "value": 17}, {"measurement": "zone duration compared to zero", "setting": "bed bugs [2]; nonanal 80", "value": "significantly greater in time spent above the odour pot in the odour zone"}]}
